Legend:
S-sulfocysteine synthase [1] = molecular target: T1, S-sulfocysteine synthase (Mycobacterium tuberculosis (strain ATCC 25618 / H37Rv), UniProt Q79FV4); test: Inhibition of hexahistidine-tagged recombinant Mycobacterium tuberculosis CysK2 expressed in Escherichia coli BL21(DE3) assessed as amount of S-sulfocysteine produced using […] as substrate incubated for 30 mins by acid-ninhydrin based spectrophotometric assay
T1 sequence (Q79FV4 whole entry): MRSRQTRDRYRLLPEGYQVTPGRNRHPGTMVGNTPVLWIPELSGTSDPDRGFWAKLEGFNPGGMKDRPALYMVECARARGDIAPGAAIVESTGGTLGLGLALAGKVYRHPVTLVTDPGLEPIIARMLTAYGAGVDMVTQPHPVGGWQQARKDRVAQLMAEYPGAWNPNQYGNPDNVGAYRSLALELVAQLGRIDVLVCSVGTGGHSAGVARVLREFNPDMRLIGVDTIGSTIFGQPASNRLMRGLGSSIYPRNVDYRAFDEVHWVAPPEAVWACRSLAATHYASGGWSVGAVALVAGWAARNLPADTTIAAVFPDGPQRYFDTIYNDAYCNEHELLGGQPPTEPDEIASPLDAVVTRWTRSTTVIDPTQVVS

S-sulfocysteine synthase [2] = molecular target: T1, S-sulfocysteine synthase; test: Inhibition of hexahistidine-tagged recombinant Mycobacterium tuberculosis CysK2 expressed in Escherichia coli BL21(DE3) assessed as dissociation constant using PLP as substrate incubated for 5 mins by fluorescence analysis
[3] = molecular target: T2, O-acetylserine sulfhydrylase (Mycobacterium tuberculosis, UniProt P9WP55); test: Inhibition of hexahistidine-tagged recombinant Mycobacterium tuberculosis CysK1 expressed in Escherichia coli BL21(DE3) assessed as dissociation constant using PLP as substrate incubated for 5 mins by fluorescence analysis
[4] = molecular target: T2, O-acetylserine sulfhydrylase; test: Inhibition of hexahistidine-tagged recombinant Mycobacterium tuberculosis CysK1 expressed in Escherichia coli BL21(DE3) assessed as amount of cysteine produced using O-acetyl-L-serine as substrate incubated for 12 mins by acid-ninhydrin based spectrophotometric assay
S-sulfocysteine synthase [5] = molecular target: T1, S-sulfocysteine synthase; test: Inhibition of hexahistidine-tagged recombinant Mycobacterium tuberculosis CysK2 expressed in Escherichia coli BL21(DE3) assessed as inhibition constant using […] as substrate by Lineweaver-Burk plot analysis
[6] = molecular target: O-phosphoserine sulfhydrylase (Mycobacterium tuberculosis (strain ATCC 25618 / H37Rv), UniProt P9WP53); test: Inhibition of Mycobacterium tuberculosis CysM
Chain of O-phosphoserine sulfhydrylase (P9WP53 whole entry): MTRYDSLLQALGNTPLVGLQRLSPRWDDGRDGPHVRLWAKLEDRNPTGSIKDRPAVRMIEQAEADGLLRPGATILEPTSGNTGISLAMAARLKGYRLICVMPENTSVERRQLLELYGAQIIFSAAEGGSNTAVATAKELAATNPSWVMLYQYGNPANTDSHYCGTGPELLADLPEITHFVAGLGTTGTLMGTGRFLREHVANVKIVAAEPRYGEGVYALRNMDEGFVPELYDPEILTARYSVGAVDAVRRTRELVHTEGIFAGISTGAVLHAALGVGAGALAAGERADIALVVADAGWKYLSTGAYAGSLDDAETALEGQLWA

Row | SMILES | IC50 (S-sulfocysteine synthase [1]) | Kd (S-sulfocysteine synthase [2]) | Kd [3] | IC50 [4] | Ki (S-sulfocysteine synthase [5]) | IC50 [6]
1 | O=C(Nc1cccc(C(=O)O)c1)Nc1cccc(-c2ccccc2)c1 | 6.6 µM | 14.9 µM | 96.8 µM | 4.9 µM | 1.1 µM | –
2 | O=C(Nc1cccc(C(=O)O)c1)Nc1ccc(Cl)c(Cl)c1 | 10.1 µM | 48.7 µM | 241 µM | 11.2 µM | – | 0.48 µM
3 | Cc1ccc(NC(=O)Nc2cccc(C(=O)O)c2)cc1 | – | 148 µM | – | – | – | –
4 | O=C(Nc1cccc(-c2ccccc2)c1)Nc1ccc(C(=O)O)c(O)c1 | 26.9 µM | – | – | 21.2 µM | – | –
5 | O=C(Nc1cccc(-c2nnn[nH]2)c1)Nc1ccc(Cl)c(Cl)c1 | – | 80.3 µM | – | – | – | –
6 | O=C(Nc1ccc(Br)cc1)Nc1cccc(C(=O)O)c1 | 27.6 µM | 17.7 µM | – | – | – | –
7 | O=C(Nc1ccc(Br)cc1)Nc1ccc(C(=O)O)c(O)c1 | – | – | – | 29.4 µM | – | –
8 | O=C(Nc1cccc(-c2ccccc2)c1)Nc1ccc(O)c(C(=O)O)c1 | 10.3 µM | 102 µM | – | 9.3 µM | – | –
9 | COc1ccc(OC)c(NC(=O)Nc2ccccc2C(=O)O)c1 | – | – | 59.9 µM | – | – | –
10 | O=C(O)c1cccc(NS(=O)(=O)c2cccc(-c3ccc(Cl)c(Cl)c3)c2)c1 | – | – | 110 µM | – | – | –
11 | O=C(Nc1ccc(Cl)cc1)Nc1cccc(C(=O)O)c1 | 13 µM | 16.9 µM | – | – | – | –
12 | O=C(Nc1ccc(Cl)c(Cl)c1)Nc1ccc(O)c(C(=O)O)c1 | 29.9 µM | – | 75.7 µM | 2.5 µM | – | –

Reference: ChEMBL document CHEMBL5260815, “Profiling of in vitro activities of urea-based inhibitors against cysteine synthases from Mycobacterium tuberculosis” (Bioorg Med Chem Lett, 2017)
